Measurements from PMC6268547, “A New Ursane-Type Nor-Triterpenoid from the Leaves of Eucommia ulmoides Oliv” (Molecules, 2012).

Molecular target: T1, protein tyrosine phosphatase 1B (PTP1B) (Homo sapiens, UniProt P18031)
T1 construct: gene PTPN1; Recombinant human GST-PTP1B
T1 sequence (P18031 1-435): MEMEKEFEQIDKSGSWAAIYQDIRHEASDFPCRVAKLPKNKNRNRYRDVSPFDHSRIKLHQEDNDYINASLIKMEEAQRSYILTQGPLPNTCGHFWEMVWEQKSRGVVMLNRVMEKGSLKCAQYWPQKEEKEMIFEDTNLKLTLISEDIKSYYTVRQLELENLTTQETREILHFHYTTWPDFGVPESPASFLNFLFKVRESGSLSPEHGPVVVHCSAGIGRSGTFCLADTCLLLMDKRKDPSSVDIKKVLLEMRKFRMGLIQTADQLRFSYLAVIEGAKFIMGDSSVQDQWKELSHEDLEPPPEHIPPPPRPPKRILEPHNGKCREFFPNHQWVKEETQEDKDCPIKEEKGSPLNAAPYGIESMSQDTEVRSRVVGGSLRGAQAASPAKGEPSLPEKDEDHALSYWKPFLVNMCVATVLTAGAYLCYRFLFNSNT
Assay: pNPP hydrolysis assay with purified GST-PTP1B, absorbance at […] nm
Assay type: biochemical

| Structure (SMILES) | IC50 [nM] |
| --- | --- |
| C[C@H]1[C@H](C)CC[C@]2(C(=O)O)CC[C@]3(C)C(=CC[C@@H]4[C@@]5(C)C[C@@H](O)[C@H](O)C(C)(C)[C@@H]5CC[C@]43C)[C@H]12 [compound 3, corosolic acid] | 690 |
| C=C1[C@H](O)[C@H](O)C[C@]2(C)[C@H]3CC=C4[C@@H]5CC(C)(C)CC[C@]5(C(=O)O)CC[C@@]4(C)[C@]3(C)CC[C@@H]12 [compound 4, 2α,3α-dihydroxy-24-nor-4(23),12-oleanadien-28-oic acid] | 3980 |
